# According to ChEMBL document CHEMBL3045545, “Control of chickpea blight disease caused by Didymella rabiei by mixing resistance inducer and contact fungicide” (2011):
# Activity calls are given as the source filed them. No cut-off for these calls is given here.
# What was measured:
# [1] = test system: Ascochyta rabiei; test: Antifungal activity against Didymella rabiei isolate ARL1 inoculated in chickpea seedlings assessed as reduction in chickpea blight disease at 100 ppm compound treated 24 hr prior seedlings by green house experiment; assay type: functional, organism-based
# [2] = test system: Ascochyta rabiei; test: Antifungal activity against Didymella rabiei in chickpea plant assessed as chickpea blight disease severity at 50 ppm compound treated by seeds soaking for 24 hr (Control = 45.8%); assay type: functional
# [3] = test system: Ascochyta rabiei; test: Antifungal activity against Didymella rabiei inoculated in chickpea plant assessed as reduction in chickpea blight disease at 100 ppm compound single spray 24 to 72 hr before inoculation by green house experiment; assay type: functional, organism-based
# [4] = test system: Ascochyta rabiei; test: Antifungal activity against Didymella rabiei inoculated in chickpea plant assessed as reduction in chickpea blight disease at 100 ppm compound single spray 24 hr before inoculation by green house experiment; assay type: functional
# [5] = test system: Ascochyta rabiei; test: Antifungal activity against Didymella rabiei in chickpea plant assessed as dry grain yield at 50 ppm compound treated by seeds soaking for 24 hr (Control = 0.268 t/ha); assay type: functional
# [6] = test system: Ascochyta rabiei; test: Antifungal activity against Didymella rabiei in chickpea plant assessed as chickpea blight disease severity at 50 ppm compound three sprays 15 intervals (Control = 45.8%); assay type: functional
# [7] = test system: Ascochyta rabiei; test: Antifungal activity against Didymella rabiei in chickpea plant assessed as chickpea blight disease severity at 50 ppm compound two sprays 15 intervals (Control = 45.8%); assay type: functional
# [8] = test system: Ascochyta rabiei; test: Antifungal activity against Didymella rabiei in chickpea plant assessed as dry grain yield at 50 ppm compound three sprays 15 intervals (Control = 0.268 t/ha); assay type: functional
# [9] = test system: Ascochyta rabiei; test: Antifungal activity against Didymella rabiei inoculated in chickpea plant assessed as reduction in chickpea blight disease at 100 ppm compound single spray 96 or 120 hr before inoculation by green house experiment; assay type: functional, organism-based
# [10] = test system: Ascochyta rabiei; test: Antifungal activity against Didymella rabiei in chickpea plant assessed as dry grain yield at 50 ppm compound single spray 15 intervals (Control = 0.268 t/ha); assay type: functional
# [11] = test system: Ascochyta rabiei; test: Antifungal activity against Didymella rabiei in chickpea plant assessed as dry grain yield at 50 ppm compound two sprays 15 intervals (Control = 0.268 t/ha); assay type: functional
# [12] = test system: Ascochyta rabiei; test: Antifungal activity against Didymella rabiei in chickpea plant assessed as chickpea blight disease severity at 50 ppm compound single spray 15 intervals (Control = 45.8%); assay type: functional
structure (smiles),measurement,setting,value
CSC(=O)c1cccc2nnsc12 [ACIBENZOLAR-S-METHYL],inhibition,[1],Active
same,Activity,[2],22.5%
same,inhibition,[3],Active
same,inhibition at 100 ppm,[4],72.4%
same,Crop_yield,[5],0.456 tons/ha
same,Activity,[6],4.2%
same,Activity,[7],7.5%
same,Crop_yield,[8],0.922 tons/ha
same,inhibition,[9],inactive
same,Crop_yield,[10],0.52 tons/ha
same,Crop_yield,[11],1.066 tons/ha
same,Activity,[12],17.5%
